Patent US12492173B2, “Herbicidal substituted N-tetrazolyl aryl carboxamides” (Bayer Aktiengesellschaft, priority 2019, dated 2025)

Experiments:
Format in all cases: in vivo
Setaria viridis = assay: Post-emergence herbicidal action, SETVI; design: key: % herbicidal action vs untreated; 100 = plants died, 0 = like control
Summary of the method: (§1)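 Percent herbicidal effect was rated visually about 3 weeks after treatment, relative to untreated plants (0% = like control, 100% = dead). Compounds, formulated as WP or EC, went on as aqueous spray (600–800 l/ha, 0.2% wetting agent) to one-leaf-stage plants 2–3 weeks post-sowing in sandy loam.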

Lolium rigidum = assay: Pre-emergence herbicidal action, LOLRI; conditions: dosage 320 g/ha, scored visually after 3 weeks vs untreated controls (100% = plants have died)
Description: 1. Pre-Emergence Herbicidal Action Against Harmful Plants Seeds of monocotyledonous and dicotyledonous weed plants and crop plants are laid out in sandy loam soil in wood-fiber pots and covered with soil. The compounds of the invention, formulated in the form of wettable powders (WP) or as emulsion concentrates (EC), are then applied to the surface of the covering soil in the form of an aqueous suspension or emulsion at a water application rate equating to 600 to 800 l/ha, with addition of 0.2% wetting agent. After the treatment, the pots are placed in a greenhouse and kept under good growth conditions for the trial plants. The damage to the test plants is scored visually after a test period of 3 weeks by comparison with untreated controls (herbicidal activity in percent (%): 100% activity=the plants have died, 0% activity=like control plants). […] The tables below illustrate, in an exemplary manner, the […] herbicidal action of the compounds according to the invention, the herbicidal activity being stated in percent. [table] In the experiments that follow, herbicidal action of numerous inventive compounds and the known compounds that are structurally closest from D1 (WO 2012/028579 A1) and D2 (WO 2018/202535 A1) were compared under the above-specified conditions by the pre-emergence and post-emergence method. The example numbers given in the tables relate to the compounds disclosed in the respective documents. In addition to the compounds disclosed in D1 and D2, the following compounds V-1 to V-14 that are encompassed by D1 or D2 but are not compounds specified therein were used in the comparative experiments: • V-1: 2-(methylsulfanyl)-3-(methylsulfinyl)-N-(1-methyl-1H-tetrazol-5-yl)-4-(trifluoromethyl)benzamide • V-2: 2-(methylsulfanyl)-3-(methylsulfonyl)-N-(1-methyl-1H-tetrazol-5-yl)-4-(trifluoromethyl)benzamide • V-3: 2,3-bis(ethylsulfanyl)-N-(1-methyl-1H-tetrazol-5-yl)-4-(trifluoromethyl)benzamide • V-4: 2-chloro-3-(ethylsulfanyl)-N-(1-methyl-1H-tetrazol-5-yl)-4-(trifluoromethyl)benzamide • V-5: 2-chloro-4-iodo-3-(methylsulfanyl)-N-(1-methyl-1H-tetrazol-5-yl)benzamide • V-6: 2-chloro-4-iodo-3-(methylsulfinyl)-N-(1-methyl-1H-tetrazol-5-yl)benzamide • V-7: 2-chloro-4-iodo-3-(methylsulfonyl)-N-(1-methyl-1H-tetrazol-5-yl)benzamide • V-8: 2-bromo-3-(methylsulfanyl)-N-(1-methyl-1H-tetrazol-5-yl)-4-(trifluoromethyl)benzamide • V-9: 2-bromo-3-(methylsulfinyl)-N-(1-methyl-1H-tetrazol-5-yl)-4-(trifluoromethyl)benzamide • V-10: 2-bromo-3-(methylsulfonyl)-N-(1-methyl-1H-tetrazol-5-yl)-4-(trifluoromethyl)benzamide • V-11: 2-bromo-3-(ethylsulfanyl)-N-(1-methyl-1H-tetrazol-5-yl)-4-(trifluoromethyl)benzamide • V-12: 2-bromo-3-(ethylsulfinyl)-N-(1-methyl-1H-tetrazol-5-yl)-4-(trifluoromethyl)benzamide • V-13: 2-bromo-3-(ethylsulfonyl)-N-(1-methyl-1-1H-tetrazol-5-yl)-4-(trifluoromethyl)benzamide • V-14: 2-cyclopropyl-3-(ethylsulfanyl)-N-(1-methyl-1H-tetrazol-5-yl)-4-(trifluoromethyl)benzamide Herbicidal Pre-Emergence Action: […]

Echinochloa crus-galli [1] = assay: Post-emergence herbicidal action, ECHCG; design: key: % herbicidal action vs untreated; 100 = plants died, 0 = like control
Summary of the method: as §1

Polygonum convolvulus = assay: Pre-emergence herbicidal action, POLCO; conditions: for herbicidal activity POLCO: dosage 320 g/ha, scored visually after 3 weeks vs untreated controls (100% = plants have died)
Summary of the method: (§2)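 Pre-emergence soil spray over sandy loam-covered seeds; greenhouse 3 weeks; % visual damage (0% = control, 100% = dead).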

Echinochloa crus-galli [2] = assay: Pre-emergence herbicidal action, ECHCG; design: key to Herbicidal action against ECHCG: % activity: 100 = plants have died, 0 = like control plants; conditions: for herbicidal activity ECHCG: dosage 320 g/ha, scored visually after 3 weeks vs untreated controls (100% = plants have died)
Summary of the method: as §2

Matricaria inodora = assay: Pre-emergence herbicidal action, MATIN; design: key to Herbicidal action against MATIN: % activity: 100 = plants have died, 0 = like control plants; conditions: for herbicidal activity MATIN: dosage 320 g/ha, scored visually after 3 weeks vs untreated controls (100% = plants have died)
Summary of the method: as §2

[3] = comparative experiment, 20 g of a.i./ha

CC[S+]([O-])Cc1c(C(F)(F)F)ccc(C(=O)Nc2nnnn2C)c1Cl (racemic) [Example 1-300]
herbicidal action SETVI (Setaria viridis; post-emergence, dosage 80 g/ha): 90%
herbicidal activity LOLRI (Lolium rigidum): 100%
herbicidal action ECHCG (Echinochloa crus-galli [1]; post-emergence, dosage 80 g/ha): 100%
herbicidal activity POLCO (Polygonum convolvulus): 100%
herbicidal activity ECHCG (Echinochloa crus-galli [2]): 100%
herbicidal activity MATIN (Matricaria inodora): 100%

Cn1nnnc1NC(=O)c1ccc(C(F)(F)F)c(C[S+]([O-])C2CC2)c1Cl (racemic) [Example 1-303]
herbicidal action SETVI (Setaria viridis; post-emergence, dosage 80 g/ha): 100%
herbicidal activity LOLRI (Lolium rigidum): 100%
herbicidal action ECHCG (Echinochloa crus-galli [1]; post-emergence, dosage 80 g/ha): 100%
herbicidal activity POLCO (Polygonum convolvulus): 100%
herbicidal activity ECHCG (Echinochloa crus-galli [2]): 100%
herbicidal activity MATIN (Matricaria inodora): 100%

COCC[S+]([O-])Cc1c(C(F)(F)F)ccc(C(=O)Nc2nnnn2C)c1Cl (racemic) [Example 1-306]
herbicidal action SETVI (Setaria viridis; Dosage 80 g/ha): 90
herbicidal activity LOLRI (Lolium rigidum): 90%
herbicidal action ECHCG (Echinochloa crus-galli [1]; Dosage 80 g/ha): 90
herbicidal activity POLCO (Polygonum convolvulus): 80%
herbicidal activity ECHCG (Echinochloa crus-galli [2]): 100%
herbicidal activity MATIN (Matricaria inodora): 100%

Cn1nnnc1NC(=O)c1ccc(C(F)(F)F)c(C[S+]([O-])CC(F)(F)F)c1Cl (racemic) [Example 1-312]
herbicidal action SETVI (Setaria viridis; post-emergence, dosage 80 g/ha): 100%
herbicidal activity LOLRI (Lolium rigidum): 90%
herbicidal action ECHCG (Echinochloa crus-galli [1]; post-emergence, dosage 80 g/ha): 100%
herbicidal activity POLCO (Polygonum convolvulus): 90%
herbicidal activity ECHCG (Echinochloa crus-galli [2]): 100%
herbicidal activity MATIN (Matricaria inodora): 100%

Cn1nnnc1NC(=O)c1ccc(I)c(C[S+](C)[O-])c1Cl (racemic) [Example 1-363]
herbicidal action SETVI (Setaria viridis; post-emergence, dosage 80 g/ha): 100%
herbicidal activity LOLRI (Lolium rigidum): 100%
herbicidal action ECHCG (Echinochloa crus-galli [1]; post-emergence, dosage 80 g/ha): 100%
herbicidal activity POLCO (Polygonum convolvulus): 90%
herbicidal activity ECHCG (Echinochloa crus-galli [2]): 100%
Herbicidal action against MATIN (Matricaria inodora; [3]): 90
herbicidal activity MATIN (Matricaria inodora): 100%

CSc1c(C(=O)Nc2nnnn2C)ccc(C(F)(F)F)c1C[S+](C)[O-] (stereo not shown) [Example 1-162]
herbicidal action SETVI (Setaria viridis; post-emergence, dosage 80 g/ha): 100%
herbicidal activity LOLRI (Lolium rigidum): 90%
herbicidal action ECHCG (Echinochloa crus-galli [1]; post-emergence, dosage 80 g/ha): 100%
Herbicidal action against POLCO (Polygonum convolvulus; [3]): 80
herbicidal activity POLCO (Polygonum convolvulus): 100%
Herbicidal action against ECHCG (Echinochloa crus-galli [2]; [3]): 90
herbicidal activity ECHCG (Echinochloa crus-galli [2]): 100%
herbicidal activity MATIN (Matricaria inodora): 100%

Cn1nnnc1NC(=O)c1ccc(C(F)(F)F)c(CSC2CC2)c1Cl [Example 1-302]
herbicidal action SETVI (Setaria viridis; post-emergence, dosage 80 g/ha): 100%
herbicidal activity LOLRI (Lolium rigidum): 100%
herbicidal action ECHCG (Echinochloa crus-galli [1]; post-emergence, dosage 80 g/ha): 100%
herbicidal activity POLCO (Polygonum convolvulus): 100%
herbicidal activity ECHCG (Echinochloa crus-galli [2]): 100%
herbicidal activity MATIN (Matricaria inodora): 100%

Cn1nnnc1NC(=O)c1ccc(C(F)(F)F)c(CS(=O)(=O)C2CC2)c1Cl [Example 1-304]
herbicidal action SETVI (Setaria viridis; post-emergence, dosage 80 g/ha): 90%
herbicidal activity LOLRI (Lolium rigidum): 100%
herbicidal action ECHCG (Echinochloa crus-galli [1]; post-emergence, dosage 80 g/ha): 100%
herbicidal activity POLCO (Polygonum convolvulus): 100%
herbicidal activity ECHCG (Echinochloa crus-galli [2]): 100%
herbicidal activity MATIN (Matricaria inodora): 100%

COCCSCc1c(C(F)(F)F)ccc(C(=O)Nc2nnnn2C)c1Cl [Example 1-305]
herbicidal action SETVI (Setaria viridis; post-emergence, dosage 80 g/ha): 100%
herbicidal activity LOLRI (Lolium rigidum): 90%
herbicidal action ECHCG (Echinochloa crus-galli [1]; post-emergence, dosage 80 g/ha): 100%
herbicidal activity ECHCG (Echinochloa crus-galli [2]): 100%
herbicidal activity MATIN (Matricaria inodora): 100%

Cn1nnnc1NC(=O)c1ccc(C(F)(F)F)c(CSCC(F)(F)F)c1Cl [Example 1-311]
herbicidal action SETVI (Setaria viridis; Dosage 80 g/ha): 100
herbicidal activity LOLRI (Lolium rigidum): 100%
herbicidal action ECHCG (Echinochloa crus-galli [1]; Dosage 80 g/ha): 100
herbicidal activity ECHCG (Echinochloa crus-galli [2]): 100%
herbicidal activity MATIN (Matricaria inodora): 100%

Cn1nnnc1NC(=O)c1ccc(C(F)(F)F)c(CSCC2CC2)c1Cl [Example 1-314]
herbicidal action SETVI (Setaria viridis; post-emergence, dosage 80 g/ha): 100%
herbicidal activity LOLRI (Lolium rigidum): 100%
herbicidal action ECHCG (Echinochloa crus-galli [1]; post-emergence, dosage 80 g/ha): 100%
herbicidal activity POLCO (Polygonum convolvulus): 100%
herbicidal activity ECHCG (Echinochloa crus-galli [2]): 100%
herbicidal activity MATIN (Matricaria inodora): 100%
